Read-outs that look alike come from different tables or passages of the source.
Columns and labels:
[1] = system: HuH-7 and SNU-398 cells; test: In vivo tumorigenicity of shRNA-transduced HCC cells in NOD/SCID mice
Procedure: 4- to 8-week-old NOD/SIC mice were used. Animal work was done at the Childrens Hospital Boston (CHB) with approval from IACUC. 10×10^6 SNU-398 or 6×10^6 HuH-7 cells infected with viruses expressing scrambled shRNA or E5 shRNA specific for SALL4 (total 300 μL of cell suspension and matrigel in 1:1 ratio) were injected subcutaneously (s.c.) into NOD/SCID mice on the right flank. After injection, mice were examined and tumor volumes were measured at various time points. Tumor volume=π/6×larger diameter×(smaller diameter)^2. Tumor samples were processed for routine histology examination.
A decrease in tumorigenicity in SALL4-knockdown HCC cells was anticipated and an in vivo transplantation assay was carried out to confirm this hypothesis. HuH-7, another HCC cell line with considerably high endogenous SALL4 expression, and SNU-398 cells were transduced with lentivirus expressing either E5 shRNA or control scrambled shRNA and transplanted subcutaneously into right flank of NOD/SCID mice.
To examine if SALL4 has a role in maintaining tumorigenicity of HCC cells, in vivo xenotransplantation assays were carried out. HuH-7 and SNU-398 cells were transduced with lentviruses expressing either shSALL4 1 or Scr shRNA 1 and transplanted subcutaneously into the flanks of NOD/SCID mice.

[2] = system: OV90; test: Peptide treatment of ovarian cancer cells; type: cell-based
Procedure: Mut-peptide: mutant peptide; WT-peptide: wild-type peptide.
To understand the mechanism(s) of SALL4 function(s), SALL4-associated proteins were identified by tandem mass spectrometry. Components of the Mi-2/nucleosome remodeling and deacetylase (NuRD) complex were found in SALL4-immunocomplexes along with HDAC activity in ESCs with endogenous SALL4 expression and 293T cells overexpressing SALL4. The SALL4-mediated transcriptional regulation was tested on one potential target gene: Phosphatase and Tensin Homolog (Pten). Pten was confirmed as SALL4 downstream targets by chromatin-immunoprecipitation (ChIP), and its expression level, when tested by quantitative reverse transcription polymerase chain reaction (qRT-PCR), was decreased in 293T cells overexpressing SALL4. […] A small peptide that can block the oncogenic role of SALL4 in repressing Pten has been generated.

[3] = system: HDAC1 and HDAC2; test: Anti-FITC pull-down from HL60 cell lysates, immunoblot for HDAC1 and HDAC2; type: binding, human
Procedure: FIG. 18: SALL4 peptide interacts with various components of the NuRD complex. Cell lysates from HL60 cells were mixed with wild type (wt) or mutant (mut) peptides end-labeled with FITC and immunoprecipitated with anti-FITC antibody (Santa Cruz). The complexes were pulled down with Dynabeads Antibody Coupling Kit (Invitrogen) according to the manufacturer's instructions. The samples were immunoblotted and probed for HDAC1 and HDAC2. […] The specificity was tested with mouse IgG instead of anti-FITC antibody.

[4] = system: PTEN/AKT pathway; test: PTEN/AKT pathway expression in KBM5 cells (Western blot); type: cell-based
Text: To further evaluate the specificity of the SALL4/PTEN pathway, next investigated was whether wild type peptide treatment could affect the expression of PTEN and its downstream target, phosphorylated AKT (pAKT).

[5] = system: AN3CA cells; test: Cell viability assay (MTT/MTS); type: cell-based, human; details: AN3CA (high SALL4, no PTEN)
Procedure: Cell viability assay (MTT) (Invitrogen) was performed according to the manufacturer's instructions. Briefly—10000 cells were seeded in 100 ul medium in 96 well plates. The next day cells were treated as indicated on the figures. At the designated time after the treatment 20 ul of 5 mg/ml MTT solution was added to each well. After 3.5 h incubation at 37 C the medium was removed and the reaction was terminated with a solution of 4 mM HCl, 0.1% Nondet P-40 (NP40) all in isopropanol in dark on orbital shaker for […]. at room temperature. The absorbance was read at 590 nm with a reference filter of 620 nm in Spectromax M3 (ABI) spectrophotometer.
Multiple leukemic and solid tumor cancer cell lines with high or low/no SALL4 expression (FIG. 10A) were chosen to test the biological effect(s) of the wild type peptide. Wild type or scrambled peptide was delivered into tumor cells at various concentrations, and their effects on cells were evaluated 72 hours post-treatment by the MTS cell viability assay. […] The effect of wild type peptide is SALL4-specific, as it had no effect on KBM5, an AML cell line with undetectable endogenous SALL4 expression. We were surprised to see that the wild type peptide had no effect on a high SALL4-expressing endometrioid cancer cell line, AN3CA. […] Therefore, expression of PTEN was evaluated in AN3CA cells along with other cell lines. […]

Substance | mice with tumor formation ([1]; HuH-7, subcutaneous, n=3) | ability of cells to propagate tumors ([1]; HuH-7 and SNU-398) | survival of mice ([1]; HuH-7 and SNU-398, Kaplan-Meier) | living cells / cell death [2] | living cells / cell death ([2]; listed as small peptide) | binding to HDAC1 and HDAC2 [3] | levels of PTEN and pAKT [4] | cell viability [5]
CTATTTAGCCAAAGGCAAA (short hairpin RNA, chemistry and delivery not given here, further chemistry not given here) [E5 shRNA] | one out of the three | greatly reduced the ability of these cells to propagate tumors | significant survival advantage | – | – | – | – | –
H-MSRRKQAKPQHI-OH [wt peptide, MSRRKQAKPQHI] | – | – | – | decreased living cells | resulted in cell death | several folds higher activity than the mutant | little or no effect | had no effect

Reference: patent US9365851B2, “Spalt-like transcription factor 4 (SALL4) and uses thereof” (National University of Singapore, priority 2011, dated 2016)
